In patent publication US6399649B1, “Compositions and methods for the treatment of chronic lymphocytic leukemia” (Boston Medical Center Corporation, priority 1998, dated 2002):

Legend:
PDE-4B transcript = experiment: Northern analysis of PDE-4B transcript in cultured CLL cells; format: cell-based, human; conditions: 10 uMol/L, six hour culture period
Protocol: RNA was isolated from CLL or whole mononuclear cells using Ultraspec reagent (Biotecx, Houston, Tex.). cDNA was synthesized from 10 ug of total RNA using oligo d(T) primers and Maloney murine leukemia virus reverse transcriptase in a final volume of 40 uL (Stratagene, La Jolla, Calif.). One mL of the first strand cDNA product was then used as template for PCR amplification with AmpliTaq DNA polymerase (Roche Molecular Systems, Branchburg, N.J.) by 40 thermocycles of 94° C. for 1 minute, 600° C. for 1 minute and 72° C. for 1 minute. […] For hybridization to Northern blots, these PCR products were subcloned into a plasmid vector (pCRII, Invitrogen, Carlsbad, Calif.) and subsequently utilized for PCR-based amplification of a32P dATP-labelled probes.
RNA was isolated from 20 million CLL cells immediately after cell purification (CT), or after 6 hours culture in media alone (6 Hr) or with addition of 10 uMol/L rolipram (Roli). Equal loading and transfer of RNA was confirmed by hybridization with an actin probe as shown.

[1] = system: PDE activity in CLL cells; experiment: cAMP PDE assay on CLL cell lysates; format: biochemical, human; conditions: 10 uMol/L
Text: The technique of Robiesek et al., itself adapted from an assay described by Thompson and Appleman, was used in modified form. S. A. Robicsek et al., “Multiple high-affinity cAMP-phosphodiesterases in human T-lymphocytes,” Biochem. Pharmacol. 42:869 (1991). W. J. Thompson and M. M. Appleman, “Multiple cyclic nucleotide phosphodiesterase activities from rat brain,” Biochemistry 10:311 […]. 150 million purified CLL cells were pelleted and sonicated (Branson 350 Sonifier with micropit probe, output =2, 50% duty cycle) on ice in 1.0 mL of a buffer which contained 20 mMol/L Tris (pH 6.8), 1 mMol/L EDTA, aprotinin (50 u/mL), pepstatin (1 mg/mL), PMSF (1 mMol/L) and 3.75 mMol/L b-ME. Assay buffer contained 100 mMol/L Tris (pH 8.0), 20 mMol/l MgCl2, 0.2% BSA and 7.5 mMol/L b-ME. [^3H]-cAMP (NEN, Boston, Mass.) was incubated with PDE for 10 minutes at 30° C. in 20 uL volumes (10 uL of sonication buffer and 10 uL of assay buffer) which contained 0.22 units of alkaline phosphatase. 10 uMol/L rolipram or 0.2 mMol/L calcium/20 nMol/L calmodulin were added to the assay buffer as appropriate. Reactions were halted by the addition of 0.5 mL of a 1:3 slurry w/v slurry of AG1-X8 anion exchange resin and a mixture of equal volumes of water and isopropanol. […] The radiolabelled nucleosides in the supernatant were counted using Ecoscint scintillation fluid (National Diagnostics, Atlanta, Ga.). […]

CD19+ B cells = experiment: cAMP assay (RIA) in CD19+ B cells; format: cell-based, human; conditions: at two hours; unstimulated or anti-Ig stimulated
Protocol: One million cells in 1 mL were treated for two hours with or without drugs. 0.8 mL of cells were pelleted by spinning at 4,000 rpm (RCF=1,310) in microcentrifuge tube. After discarding 0.7 mL, 400 uL of ethanol was added, vortexed and left on ice for five minutes. Particulate cell debris was removed by centrifugation at 14,000 rpm (RCF=16,000). The supernatant was stored at −20° C. until the day of assay, at which time it was dried in a Speedivac (Savant, Farmingdale, N.Y.) to a volume of 50 uL. After ten-fold dilution in 10 mMol/L Tris pH 8.0, 1 mMol/L EDTA, the cAMP sample was analyzed for cAMP concentration using a cAMP RIA kit (NEN, Boston, Mass.) according to the manufacturer's instructions using the nonacetylated protocol.
For each of the four cell populations, two or six hours after drug treatment, cAMP levels were higher for rolipram/forskolin-treated cells than for forskolin only treated cells (test: one tailed significance level<0.05) (FIG. 9).

CLL cells = experiment: Hoechst 33342 apoptosis assay, CLL cells; format: cell-based, human; conditions: for percentage of apoptotic cells: 10 uMol/L rolipram
Protocol: Hoechst 33342 was dissolved in water and frozen at 33 mg/mL at −20° C. One million cells/well were incubated in duplicate or triplicate in 48 well tissue culture plates (Costar, Cambridge, Mass.) with or without drug treatment for […] in 1 mL of culture media. Cells were transferred to 12×75 mm polystyrene Falcon® 2054 FACS tubes (Becton Dickinson Labware, Lincoln Park, N.J.) and incubated for ten minutes at 37° C. with Hoechst 33342 at a final concentration of […]. 23 Cells were stored on ice until analysis on a FACS Vantage flow cytometer (Becton Dickinson, San Jose, Calif.). Hoechst 33342 dye fluorescence was excited with a UV laser and detected using a 450 bandpass filter; Data was analyzed using Cellquest software (Becton Dickinson, San Jose, Calif.).
As a more quantitative analysis of CLL apoptosis, we utilized a flow cytometry method in which apoptotic cells are distinguished both by their reduced size (FSC) and their increased uptake of the lipophilic UV fluorescent dye Hoechst 33342 (FL-4) when the intact, heterogeneous cell population is incubated with a low concentration of the dye (0.25 ug/mL) for 10 minutes at 37° C. Specifically, cells were cultured for 72 hours in media (1), 1uMol/L rolipram (2), 40 uMol/L forskolin (3) or a combination of the two drugs (FIG. 6). The abcissa reflects forward light scatter and the ordinate Hoechst 33342 fluorescence. Apoptotic cells are characterized by reduced forward light scatter and increased Hoechst 33342 fluorescence. Previous reports of cAMP induced lymphoid apoptosis have noted that this form of programmed cell death may take 48 to 72 hours to develop maximally. […] CLL cells were cultured for 72 hours in one mL of media with the indicated concentration of rolipram with (black bars) or without (stippled bars) the addition of 40 uMol/L forskolin.

Type 4 enzymes = conditions: cited from earlier work

COc1ccc(C2CNC(=O)C2)cc1OC1CCCC1 (racemic) [rolipram, 4-(3-cyclopentyloxy-4-methoxyphenyl)-2-pyrrolidone]
PDE-4B transcript levels (PDE-4B transcript): significantly reduced this fall in PDE-4B transcript levels
PDE activity in CLL cells [1]: inhibited
cAMP levels in CD19+ B cells (CD19+ B cells): raised cAMP levels equivalently
absolute increase in apoptotic cells (CLL cells; 10 uMol/L, four relatively rolipram-resistant patient samples (Pt #'s 11-14)): less than 33%
CLL cell apoptosis (CLL cells; 72 hour culture, rolipram dose range with or without 40 uMol/L forskolin): dose dependent increase in CLL cell apoptosis
apoptosis of anti-Ig stimulated CLL cells (CLL cells; CLL cells derived from two patients): failed to protect these cells from rolipram-induced apoptosis
percentage of apoptotic cells (CLL cells; Pt. 1, Rai III, basal 47, 40 uMol/L forskolin or 100 uMol/L dbcAMP, three days): 80%
percentage of apoptotic cells (CLL cells; Pt. 2, Rai IV, Drug Res. Ch, Cy, basal 18 ± 2, 40 uMol/L forskolin or 100 uMol/L dbcAMP, three days): 79%
percentage of apoptotic cells (CLL cells; Pt. 3, Rai IV, Drug Res. Ch, CH, basal 38, 40 uMol/L forskolin or 100 uMol/L dbcAMP, three days): 77 ± 1%
percentage of apoptotic cells (CLL cells; Pt. 4, Rai I, basal 31 ± 2, 40 uMol/L forskolin or 100 uMol/L dbcAMP, three days): 76 ± 2%
percentage of apoptotic cells (CLL cells; Pt. 5, Rai IV, basal 18, 40 uMol/L forskolin or 100 uMol/L dbcAMP, three days): 57 ± 2%
percentage of apoptotic cells (CLL cells; Pt. 6, Rai IV, Drug Res. Ch, basal 17 ± 4, 40 uMol/L forskolin or 100 uMol/L dbcAMP, three days): 54 ± 1%
percentage of apoptotic cells (CLL cells; Pt. 7, Rai II, Drug Res. Ch, basal 13 ± 2, 40 uMol/L forskolin or 100 uMol/L dbcAMP, three days): 47 ± 2%
percentage of apoptotic cells (CLL cells; Pt. 8, Rai 0, basal 5, 40 uMol/L forskolin, three days): 46%
percentage of apoptotic cells (CLL cells; Pt. 9, Rai IV, Drug Res. Ch, Cy, Fl, basal 4 ± 0, 40 uMol/L forskolin or 100 uMol/L dbcAMP, three days): 44 ± 3%
percentage of apoptotic cells (CLL cells; Pt. 10, Rai I, basal 11, 40 uMol/L forskolin or 100 uMol/L dbcAMP, three days): 44 ± 0%
percentage of apoptotic cells (CLL cells; Pt. 11, Rai 0, basal 24 ± 4, 40 uMol/L forskolin or 100 uMol/L dbcAMP, three days): 40 ± 0%
percentage of apoptotic cells (CLL cells; Pt. 12, Rai IV, Drug Res. Ch, Fl, 2C, basal 0 ± 4, 40 uMol/L forskolin or 100 uMol/L dbcAMP, three days): 38 ± 1%
percentage of apoptotic cells (CLL cells; Pt. 13, Rai 0, basal 2 ± 0, 40 uMol/L forskolin or 100 uMol/L dbcAMP, three days): 34 ± 0%
percentage of apoptotic cells (CLL cells; Pt. 14 (significant population of cells with prolymphocyte morphology), Rai I, basal 13 ± 0, 40 uMol/L forskolin or 100 uMol/L dbcAMP, three days): 14 ± 0%
effect on doxorubicin-induced apoptosis (CLL cells; rolipram 10 uMol/L, doxorubicin 0.03 or 0.1 uMol/L, three days): augments doxorubicin-induced apoptosis
effect on fludarabine-induced apoptosis (CLL cells; rolipram 10 uMol/L, fludarabine 0.3-3.0 uMol/L, three days): augments fludarabine-induced apoptosis
effect on chlorambucil-induced apoptosis (CLL cells; rolipram 10 uMol/L, three days): augments chlorambucil-induced apoptosis
IC50 (Type 4 enzymes): 1000 nM
